Source: patent US20140005103A1, “SULFONAMIDE DERIVATIVES AND METHODS OF USE THEREOF FOR IMPROVING THE PHARMACOKINETICS OF A DRUG” (Merck, Sharp & Dohme Corp., priority 2012, published 2014)

Tests used:
CYP2D6 = target: T1, CYP2D6 (Homo sapiens, UniProt P10635); test: Cocktail CYP assay, dextromethorphan O-demethylation; assay type: in vitro ADME; conditions: human liver microsomes, 5 μM dextromethorphan; test concentrations up to 10 μM
T1 construct: 0.1 mg/mL protein human liver microsomes (BD Gentest); tissue BD Gentest; host or cells: human liver microsomes
Procedure: (§1) Determination of IC50 in a Cocktail Assay for CYPs 1A2, 2C9, 2C19, 2D6 and 3A4
(§2) This assay was performed in a standard 96-well plate design. IC50 values were calculated from the percent inhibition observed for each test compound at 6 concentrations (for example, 0.0032, 0.016, 0.08, 0.4, 2 and 10 μM). The incubation substrate mix contains 10 μM phenacetin (1A2), 5 μM diclofenac (2C9), 30 μM mephenyloin (2C19), 5 μM dextromethorphan (2D6) and 2 μM midazolam (3A4), 0.1 mg/mL protein human liver microsomes (BD Gentest), 1 mM NAPDH, 3.3 mM MgCl2 and 100 mM potassium phosphate buffer (pH 7.4). The production of the metabolite of each probe substrate was determined after incubation for 10 min at 37° C. Quantitation of the metabolite peak area ratio against an internal standard (tolbutamide) was determined by LC/MS/MS analysis following acetonitrile treatment of the incubations.
(§3) Samples were analyzed in the MRM mode with a SCIEX API-4000 mass spectrometer (Applied Biosystems, Foster City, Calif.), with a Shimadzu LC-20 AD pump (Shimadzu corporation, Kyoto, JP) and a CTC PAL autosampler (Agilent Technologies, Switzerland). A Phenomenex, Luna, 5 nm, 100 A, 2.00×30 mm HPLC column was used for the separation. The mobile phases were: (A) 0.1% formic acid in water and (B) 0.1% formic acid in acetonitrile. The binary gradient was as follows.
(§4) The peak area ratio of the analyte to the internal standard was used to quantify the metabolite. The values of peak area ratios in the presence of test compound were compared to those of maximum or minimum controls and were expressed as % inhibition by interpolating between the maximum and minimum peak area ratios. Incubations with no inhibitor were defined as the maxima.
(§5) The following equation was used to calculate the % inhibition:
(§6) [1−[(X−Low control)/(High control−Low control)]]*100
(§7) For the IC50 calculation, SigmaPlot was used to plot the mean % inhibition versus the test compound concentrations and for non-linear regression analysis of the data. Depending on the range of data points defining the inhibition curve, the data may have been fit to the 4-parameter logistic equation.

CYP3A4 = CYP3A4 (Homo sapiens, UniProt P08684); test: IC50 vs CYP3A by inhibition of lopinavir metabolism in human liver microsomes; assay type: biochemical; conditions: pH 7.4, human liver microsomes, 1.5 μM lopinavir, 8 min at 37° C., test concentrations 0.098-100 nM, read-out: 3A4(LPV)
Procedure: Determination of IC50 vs CYP3A by Measurement of Inhibition of Lopinavir Metabolism
This assay was performed in a standard 96-well plate design. IC50 values were calculated from the percent inhibition observed for each test compound at 6 concentrations (for example, 0.098, 0.391, 1.56, 6.25, 25 and 100 nM). The incubation substrate mix contains 1.5 μM lopinavir, 0.01 mg/mL protein human liver microsomes (BD Gentest), 1 mM NAPDH, 3.3 mM MgCl2 and 100 mM potassium phosphate buffer (pH 7.4). The production of the sum of three hydroxylated metabolites (M2: 6-hydroxy lopinavir, M3: 4-hydroxy lopinavir, M4: 4-hydroxy lopinavir (epimer of M3), Kumar et al., 1999) was determined after incubation for 8 min at 37° C. Quantitation of the metabolite peak area ratio against an internal standard (tolbutamide) was determined by LC/MS/MS analysis following acetonitrile treatment of the incubations.
as §3, with “μm,” for “nm,”
as §4, with “maxima and with 5 μM ketoconazole were defined as the minima” for “maxima.”
as §5, §6, §7

CYP1A2 = target: T2, CYP1A2 (Homo sapiens, UniProt P05177); test: Cocktail CYP assay, phenacetin O-deethylation; assay type: in vitro ADME; conditions: human liver microsomes, 10 μM phenacetin; test concentrations up to 10 μM
T2 construct: 0.1 mg/mL protein human liver microsomes (BD Gentest); tissue BD Gentest; host or cells: human liver microsomes
T2 sequence (P05177 1-516): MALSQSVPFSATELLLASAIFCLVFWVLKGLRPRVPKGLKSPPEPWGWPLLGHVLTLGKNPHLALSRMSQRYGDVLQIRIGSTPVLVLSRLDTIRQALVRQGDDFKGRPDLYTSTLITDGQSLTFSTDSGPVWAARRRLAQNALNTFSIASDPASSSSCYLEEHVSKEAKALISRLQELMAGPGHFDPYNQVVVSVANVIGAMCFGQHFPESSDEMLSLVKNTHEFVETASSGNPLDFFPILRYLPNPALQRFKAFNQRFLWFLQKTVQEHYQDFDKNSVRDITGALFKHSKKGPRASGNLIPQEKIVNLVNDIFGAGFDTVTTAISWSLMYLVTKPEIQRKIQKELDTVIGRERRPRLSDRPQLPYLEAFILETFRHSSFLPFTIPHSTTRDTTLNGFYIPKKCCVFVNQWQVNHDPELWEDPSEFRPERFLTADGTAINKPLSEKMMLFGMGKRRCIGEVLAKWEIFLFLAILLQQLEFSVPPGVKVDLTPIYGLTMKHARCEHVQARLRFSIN
Procedure: as §1, §2, §3, §4, §5, §6, §7

T1 sequence (P10635 whole entry): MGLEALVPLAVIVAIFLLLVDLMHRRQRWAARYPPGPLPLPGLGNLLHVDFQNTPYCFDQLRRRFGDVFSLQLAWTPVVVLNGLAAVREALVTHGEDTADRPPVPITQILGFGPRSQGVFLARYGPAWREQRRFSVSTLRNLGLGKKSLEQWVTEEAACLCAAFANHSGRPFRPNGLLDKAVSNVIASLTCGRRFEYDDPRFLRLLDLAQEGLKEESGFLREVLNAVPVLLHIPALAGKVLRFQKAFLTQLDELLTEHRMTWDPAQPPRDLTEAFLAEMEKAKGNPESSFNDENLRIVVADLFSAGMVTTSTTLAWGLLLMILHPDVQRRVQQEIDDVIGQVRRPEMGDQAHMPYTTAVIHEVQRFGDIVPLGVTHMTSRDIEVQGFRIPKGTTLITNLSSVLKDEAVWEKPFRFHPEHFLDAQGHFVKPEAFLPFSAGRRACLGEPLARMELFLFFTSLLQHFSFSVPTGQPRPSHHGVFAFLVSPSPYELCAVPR
CYP3A4, sequence (P08684 2-503): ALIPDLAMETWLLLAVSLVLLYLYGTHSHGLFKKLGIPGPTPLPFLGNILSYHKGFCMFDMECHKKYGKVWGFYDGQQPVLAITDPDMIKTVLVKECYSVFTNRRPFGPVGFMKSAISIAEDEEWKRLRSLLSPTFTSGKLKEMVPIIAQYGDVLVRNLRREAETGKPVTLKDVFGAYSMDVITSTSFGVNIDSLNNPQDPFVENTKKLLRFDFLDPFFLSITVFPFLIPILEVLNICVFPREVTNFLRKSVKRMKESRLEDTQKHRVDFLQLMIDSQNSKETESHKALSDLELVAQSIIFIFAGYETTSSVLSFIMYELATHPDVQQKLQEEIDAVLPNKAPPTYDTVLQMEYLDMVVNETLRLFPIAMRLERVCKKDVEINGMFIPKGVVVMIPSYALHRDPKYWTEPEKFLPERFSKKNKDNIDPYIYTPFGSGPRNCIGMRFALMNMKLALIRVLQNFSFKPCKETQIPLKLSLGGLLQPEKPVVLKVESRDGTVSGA

IC50 (CYP2D6) [µM]	IC50 at 8 min (CYP3A4) [µM]	IC50 (CYP1A2) [µM]	Compound
> 10	< 0.00098	> 10	C[C@H](c1ccc(F)cc1)n1cncc1CN1CCN(S(=O)(=O)c2cnc(N3CCN4C[C@@H](CN)C[C@H]4C3)s2)CC1 [Compound 10]
7.01	0.0017	> 10	C[C@H](c1ccc(F)cc1)n1cncc1CN1CCN(S(=O)(=O)c2cnc(N3CCN4C[C@H](O)CC[C@H]4C3)s2)CC1 [Compound 19]
> 10	0.0041	2.77	C[C@H](c1ccc(F)cc1)n1cncc1CN1CCN(S(=O)(=O)c2cnc(N3CC[C@@H](N4CCOCC4)[C@H](F)C3)s2)CC1 [Compound 20]
